In patent US4606911A, “Pharmaceutical composition for the prevention of dental caries” (Rohto Pharmaceutical Co. Ltd., priority 1984, dated 1986):
Converted amounts (≈) assume the structure as drawn. “Also recorded” adds a separate entry of the source. Read-outs that look alike come from different tables or passages of the source.

Key:
Type in all cases: cell-based
[1] = test system: S. mutans OMZ 176 (serotype d); test: microbe, parasite or virus in culture; settings: for minimal effective concentration / inhibition at 10 µg/mL / inhibition at 20 µg/mL / inhibition at 30 µg/mL / inhibition at 50 µg/mL / inhibition at 100 µg/mL: Streptococcus mutans; for minimal effective concentration: 20 h, read-out: concentration at which adherence of the bacterial cells is inhibited; for inhibition at 10 µg/mL / inhibition at 20 µg/mL / inhibition at 30 µg/mL / inhibition at 50 µg/mL / inhibition at 100 µg/mL: read-out: Adherence-inhibiting activity (AIP)
Method: The adherence-inhibiting activity of the triterpenes of the formula (I) was measured using an inner wall of a test tube in place of the surface of a tooth.
To 2.9 ml of BHI medium containing 5% sucrose in a test tube (i) are added 30 μl of a sample solution prepared by dissolving a compound of: the formula (I) in H2 O or dimethylsulfoxide (DMSO) and 100 μl of culture medium containing S. mutans OMZ 176 (serotype d) which was preincuvated at 37° C. for 24 hours in BHI medium, and the mixture is incubated at 37° C. for 20 hours, with the test tube being maintained at a slant of 30°. The test tube is revolved gently two or three times and the supernatant is transferred to another test tube (ii). To the first test tube (i) is added 3 ml of 50 mM phosphate buffer (pH 7.5), and the test tube is gently revolved two or three times. The resultant supernatant is transferred to the third test tube (iii). The test tubes (ii) and (iii) are each centrifuged and respective supernatants are discarded. To each of the test tubes (i), (ii) and (iii) is added 3 ml of 0.5M NaOH, and the test tubes are shaken to suspend bacterial cells. Absorbance of the resulting suspension is measured at 660 nm. The absorbances obtained with respect to the test tube (i), (ii) and (iii) are represented by Ab(i), Ab(ii) and Ab(iii), respectively. Ab(i) reflects the amount of the bacterial cells adhered to the wall of the test tube and Ab(ii) and Ab(iii) correspond to the amount of the bacterial cells not adhered to the wall.
The same procedure is repeated using 30 μl of distilled water or DMSO in place of the sample solution to obtain a control. The absorbance of the control is represented by Ab(Cont.).
Adherence percentage of bacteria is calculated from the following equation. [formula]
Adherence inhibitory percentage (AIP) is calculated using the adherence percentage according to the following equation. [formula]
The magnitude of adherence-inhibiting activity of each of the samples is shown, in Table 3, by the use of the following symbols: […]

[2] = test system: Streptococcus mutans OMZ 176; test: Antibacterial activity (MIC, growth in BHI medium); design: key to Antibacterial activity (growth): -: grow; ±: slightly grow; +: not grow
Method: (§1) To a test tube was charged 3.8 ml of Brain Heart Infusion (BHI) medium, and 100 μl of a sample solution containing oleanolic, ursolic or glycyrrhetic acid and 100 μl of pre-incubated culture of bacterium selected from those listed below were added thereto. The mixture was incubated at 37° C. and then allowed to stand over night. The extent of the growth of bacterium was observed after two or five days.
Streptococcus mutans OMZ 176

bacterial cells = test: Adherence of bacterial cells to the surface of an extracted tooth; settings: extracted tooth suspended in a culture medium containing sucrose
[3] = test system: Bacillus megaterium QM B1551; test: Antibacterial activity (MIC, growth in BHI medium); design: key to Antibacterial activity (growth): -: grow; ±: slightly grow; +: not grow
Method: as §1, with “days. The MIC value was determined for each sample and summarized in Table 2. |Bacillus megaterium QM B1551” for “days.”

[4] = test system: Streptococcus salivarius ATCC 9222; test: Antibacterial activity (MIC, growth in BHI medium); design: key to Antibacterial activity (growth): -: grow; ±: slightly grow; +: not grow
Method: as §1, with “days. The MIC value was determined for each sample and summarized in Table 2. |Streptococcus salivarius ATCC 9222” for “days.”

[5] = text statement, listed as pomolic acid

CC1(C)CC[C@]2(C(=O)O)CC[C@]3(C)C(=CC[C@@H]4[C@@]5(C)CC[C@H](O)[C@@](C)(CO)[C@@H]5CC[C@]43C)[C@@H]2C1 [Hederagenin]
adherence-inhibiting activity (in words) [1]: have both of the adherence-inhibiting activity and the selective antibacterial activity to S. mutans; also recorded: have both activities
minimal effective concentration [1]: 10 µg/mL
inhibition at 10 µg/mL [1]: < 25%
inhibition at 20 µg/mL [1]: > 50%
inhibition at 30 µg/mL [1]: > 50%
inhibition at 50 µg/mL [1]: > 50%
inhibition at 100 µg/mL [1]: > 50%
antibacterial activity to S. mutans (in words) [2]: almost the same antibacterial activity as oleanolic acid; also recorded: have both of the adherence-inhibiting activity and the selective antibacterial activity to S. mutans; also recorded: have both activities
antibacterial activity at 10 μg/ml (in words) ([2]; 10 μg/ml): ineffective for exhibiting antibacterial activity
adherence of bacterial cells to the surface of an extracted tooth (bacterial cells): completely inhibited

C[C@@H]1CC[C@]2(C(=O)O)CC[C@]3(C)C(=CC[C@@H]4[C@@]5(C)CC[C@H](O)C(C)(C)[C@@H]5CC[C@]43C)[C@@H]2[C@]1(C)O [Pomolic acid]
minimal effective concentration [1]: 10 µg/mL
inhibition at 10 µg/mL [1]: < 25%
inhibition at 20 µg/mL [1]: > 50%
inhibition at 30 µg/mL [1]: > 50%
inhibition at 50 µg/mL [1]: > 50%
inhibition at 100 µg/mL [1]: > 50%
adherence-inhibiting activity (in words) [1, 5]: have both of the adherence-inhibiting activity and the selective antibacterial activity to S. mutans; also recorded: have both activities
antibacterial activity at 10 μg/ml (in words) ([2]; 10 μg/ml): ineffective for exhibiting antibacterial activity
antibacterial activity to S. mutans (in words) ([2]; text statement): almost the same antibacterial activity as oleanolic acid
antibacterial activity to S. mutans (in words) [2, 5]: have both of the adherence-inhibiting activity and the selective antibacterial activity to S. mutans; also recorded: have both activities
adherence of bacterial cells to the surface of an extracted tooth (bacterial cells): completely inhibited

C[C@H]1[C@H](C)CC[C@]2(C(=O)O)CC[C@]3(C)C(=CC[C@@H]4[C@@]5(C)CC[C@H](O)C(C)(C)[C@@H]5CC[C@]43C)[C@H]12 [Ursolic acid]
adherence-inhibiting activity (in words) [1]: have both of the adherence-inhibiting activity and the selective antibacterial activity to S. mutans; also recorded: have both activities
minimal effective concentration [1]: 10 µg/mL
inhibition at 10 µg/mL [1]: > 50%
inhibition at 20 µg/mL [1]: > 50%
inhibition at 30 µg/mL [1]: > 50%
inhibition at 50 µg/mL [1]: > 50%
inhibition at 100 µg/mL [1]: > 50%
antibacterial activity to S. mutans (in words) [2]: also exhibit the selective activity on S. mutans, although the magnitude of the activity is each less than that of glycyrrthetic acid; also recorded: have both of the adherence-inhibiting activity and the selective antibacterial activity to S. mutans; also recorded: have both activities
Antibacterial activity (growth) ([2]; 10 μg/ml): -
antibacterial activity at 10 μg/ml (in words) ([2]; 10 μg/ml): ineffective for exhibiting antibacterial activity
Antibacterial activity (growth) ([2]; 25 μg/ml): -
Antibacterial activity (growth) ([2]; 50 μg/ml): +
Antibacterial activity (growth) ([2]; 100 μg/ml): +
Antibacterial activity (growth) ([2]; 200 μg/ml): +
Antibacterial activity (growth) ([2]; 400 μg/ml): +
MIC ([2]; Streptococcus mutans, OMZ176, Streptococcus mutans OMZ 176, BHI, 37° C., read-out: MIC (minimum inhibitory concentration)): 25 µg/mL (≈ 54.7 µM)
Antibacterial activity (growth) ([3]; 10 μg/ml): -
Antibacterial activity (growth) ([3]; 25 μg/ml): -
Antibacterial activity (growth) ([3]; 50 μg/ml): -
Antibacterial activity (growth) ([3]; 100 μg/ml): -
Antibacterial activity (growth) ([3]; 200 μg/ml): -
Antibacterial activity (growth) ([3]; 400 μg/ml): -
MIC ([3]; Priestia megaterium, QMB1551, Bacillus megaterium, BHI, 37° C., read-out: MIC (minimum inhibitory concentration)): > 200 µg/mL
adherence of bacterial cells to the surface of an extracted tooth (bacterial cells): completely inhibited
Antibacterial activity (growth) ([4]; 10 μg/ml): -
Antibacterial activity (growth) ([4]; 25 μg/ml): -
Antibacterial activity (growth) ([4]; 50 μg/ml): +
Antibacterial activity (growth) ([4]; 100 μg/ml): +
Antibacterial activity (growth) ([4]; 200 μg/ml): +
Antibacterial activity (growth) ([4]; 400 μg/ml): +
MIC ([4]; ATCC9222, Streptococcus salivarius, BHI, 37° C., read-out: MIC (minimum inhibitory concentration)): 25 µg/mL (≈ 54.7 µM)
